Experimental data from PubChem BioAssay (NCI).
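Test compounds were applied to cells in 96-well plates for 48 hours at 5 doses. TGI: total growth inhibition.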

Tests used:
Experiment in all cases: inhibition of tumour cell growth, NCI panel, 48 h
ACHN renal = system: ACHN renal
A498 renal = system: A498 renal
HOP-62 NSCLC = system: HOP-62 NSCLC
CAKI-1 renal = system: CAKI-1 renal
KM12 colon = system: KM12 colon
RXF 393 renal = system: RXF 393 renal
NCI-H226 lung = system: NCI-H226 lung
UACC-257 melanoma = system: UACC-257 melanoma
LXFL 529 NSCLC = system: LXFL 529 NSCLC
NCI-H460 lung = system: NCI-H460 lung
M14 melanoma = system: M14 melanoma
U251 CNS = system: U251 CNS
HCC-2998 colon = system: HCC-2998 colon
HCT-116 colon = system: HCT-116 colon
HT29 colon = system: HT29 colon
SNB-75 CNS = system: SNB-75 CNS
UO-31 renal = system: UO-31 renal
M19-MEL melanoma = system: M19-MEL melanoma
HL-60(TB) leukemia = system: HL-60(TB) leukemia
HOP-18 NSCLC = system: HOP-18 NSCLC
KM20L2 colon = system: KM20L2 colon
TK-10 renal = system: TK-10 renal
SK-OV-3 ovarian = system: SK-OV-3 ovarian
OVCAR-4 ovarian = system: OVCAR-4 ovarian
OVCAR-5 ovarian = system: OVCAR-5 ovarian
SN12C renal = system: SN12C renal
EKVX NSCLC = system: EKVX NSCLC
IGROV1 ovarian = system: IGROV1 ovarian
MALME-3M melanoma = system: MALME-3M melanoma
SW-620 colon = system: SW-620 colon
SR leukemia = system: SR leukemia
A549 NSCLC = system: A549 NSCLC
SNB-78 CNS = system: SNB-78 CNS
SK-MEL-2 melanoma = system: SK-MEL-2 melanoma
SF-295 CNS = system: SF-295 CNS
COLO 205 colon = system: COLO 205 colon
NCI-H522 lung = system: NCI-H522 lung
SK-MEL-28 melanoma = system: SK-MEL-28 melanoma
786-0 renal = system: 786-0 renal
DMS 273 small cell lung = system: DMS 273 small cell lung
SK-MEL-5 melanoma = system: SK-MEL-5 melanoma
SNB-19 CNS = system: SNB-19 CNS
DMS 114 small cell lung = system: DMS 114 small cell lung
HOP-92 NSCLC = system: HOP-92 NSCLC
SF-539 CNS = system: SF-539 CNS
OVCAR-8 ovarian = system: OVCAR-8 ovarian
XF 498 CNS = system: XF 498 CNS
NCI-H23 lung = system: NCI-H23 lung
UACC-62 melanoma = system: UACC-62 melanoma
OVCAR-3 ovarian = system: OVCAR-3 ovarian
MOLT-4 leukemia = system: MOLT-4 leukemia
SF-268 CNS = system: SF-268 CNS
HCT-15 colon = system: HCT-15 colon
HS 578T breast = system: HS 578T breast
MDA-N = system: MDA-N
MDA-MB-435 = system: MDA-MB-435
K-562 leukemia = system: K-562 leukemia
LOX IMVI melanoma = system: LOX IMVI melanoma
MDA-MB-231 breast = system: MDA-MB-231 breast
MCF7 breast = system: MCF7 breast
CCRF-CEM leukemia = system: CCRF-CEM leukemia
PC-3 prostate = system: PC-3 prostate
NCI/ADR-RES ovarian = system: NCI/ADR-RES ovarian
RPMI-8226 leukemia = system: RPMI-8226 leukemia
BT-549 breast = system: BT-549 breast
T-47D breast = system: T-47D breast
DU-145 prostate = system: DU-145 prostate

Compound: Cn1c2ccccc2c(=O)c2c([N+](=O)[O-])ccc(NCCN)c21
- TGI (ACHN renal): 19.7 µM
- TGI (A498 renal): 31 µM
- TGI (HOP-62 NSCLC): 30.7 µM
- TGI (CAKI-1 renal): 25.9 µM
- TGI (KM12 colon): 19.7 µM
- TGI (RXF 393 renal): 23.3 µM
- TGI (NCI-H226 lung): 27.2 µM
- TGI (UACC-257 melanoma): 26.9 µM
- TGI (LXFL 529 NSCLC): 21.1 µM
- TGI (NCI-H460 lung): 22.8 µM
- TGI (M14 melanoma): 27.4 µM
- TGI (U251 CNS): 28.1 µM
- TGI (HCC-2998 colon): 21.8 µM
- TGI (HCT-116 colon): 15.3 µM
- TGI (HT29 colon): 17.3 µM
- TGI (SNB-75 CNS): 26.8 µM
- TGI (UO-31 renal): 18.8 µM
- TGI (M19-MEL melanoma): 26 µM
- TGI (HL-60(TB) leukemia): 22.9 µM
- TGI (HOP-18 NSCLC): 26.4 µM
- TGI (KM20L2 colon): 24.1 µM
- TGI (TK-10 renal): 28.5 µM
- TGI (SK-OV-3 ovarian): 29.4 µM
- TGI (OVCAR-4 ovarian): 24.9 µM
- TGI (OVCAR-5 ovarian): 26.9 µM
- TGI (SN12C renal): 17.2 µM
- TGI (EKVX NSCLC): 31 µM
- TGI (IGROV1 ovarian): 27.2 µM
- TGI (MALME-3M melanoma): 28.9 µM
- TGI (SW-620 colon): 16.6 µM
- TGI (SR leukemia): > 100 µM
- TGI (A549 NSCLC): 25.5 µM
- TGI (SNB-78 CNS): 31.3 µM
- TGI (SK-MEL-2 melanoma): 36 µM
- TGI (SF-295 CNS): 25 µM
- TGI (COLO 205 colon): 19.3 µM
- TGI (NCI-H522 lung): 20.5 µM
- TGI (SK-MEL-28 melanoma): 29.2 µM
- TGI (786-0 renal): 20.6 µM
- TGI (DMS 273 small cell lung): 16.9 µM
- TGI (SK-MEL-5 melanoma): 27.2 µM
- TGI (SNB-19 CNS): 27.8 µM
- TGI (DMS 114 small cell lung): 26.4 µM
- TGI (HOP-92 NSCLC): 20.2 µM
- TGI (SF-539 CNS): 20.8 µM
- TGI (OVCAR-8 ovarian): 24.5 µM
- TGI (XF 498 CNS): 28.7 µM
- TGI (NCI-H23 lung): 23.6 µM
- TGI (UACC-62 melanoma): 29.6 µM
- TGI (OVCAR-3 ovarian): 27.2 µM
- TGI (MOLT-4 leukemia): 7.95 µM
- TGI (SF-268 CNS): 26 µM
- TGI (HCT-15 colon): 26.7 µM

Compound: Nc1ccc(Oc2ccc(C34CC5CC(C3)CC(c3ccc(Oc6ccc(N)cc6)cc3)(C5)C4)cc2)cc1
- TGI (HS 578T breast): > 62.8 µM
- TGI (ACHN renal): > 51.4 µM
- TGI (A498 renal): 27.3 µM
- TGI (HOP-62 NSCLC): > 56.7 µM
- TGI (CAKI-1 renal): 46.3 µM
- TGI (KM12 colon): > 45.4 µM
- TGI (RXF 393 renal): > 51.9 µM
- TGI (NCI-H226 lung): 75.2 µM
- TGI (UACC-257 melanoma): 40.9 µM
- TGI (MDA-N): > 45.1 µM
- TGI (NCI-H460 lung): 22.6 µM
- TGI (M14 melanoma): 23.5 µM
- TGI (U251 CNS): 21.6 µM
- TGI (MDA-MB-435): 40.7 µM
- TGI (HCC-2998 colon): 19.3 µM
- TGI (HCT-116 colon): > 44.8 µM
- TGI (HT29 colon): > 55 µM
- TGI (SNB-75 CNS): 90.5 µM
- TGI (K-562 leukemia): > 100 µM
- TGI (UO-31 renal): > 53.4 µM
- TGI (LOX IMVI melanoma): 20.1 µM
- TGI (HL-60(TB) leukemia): > 66.9 µM
- TGI (MDA-MB-231 breast): 32.9 µM
- TGI (MCF7 breast): 21.6 µM
- TGI (TK-10 renal): > 39.4 µM
- TGI (SK-OV-3 ovarian): > 70.1 µM
- TGI (OVCAR-4 ovarian): 51.2 µM
- TGI (OVCAR-5 ovarian): 62.2 µM
- TGI (SN12C renal): > 55.2 µM
- TGI (EKVX NSCLC): > 66.5 µM
- TGI (IGROV1 ovarian): 15.4 µM
- TGI (MALME-3M melanoma): 28.7 µM
- TGI (SW-620 colon): > 100 µM
- TGI (SR leukemia): > 100 µM
- TGI (A549 NSCLC): > 60.7 µM
- TGI (SK-MEL-2 melanoma): 36.2 µM
- TGI (CCRF-CEM leukemia): > 100 µM
- TGI (SF-295 CNS): > 56.4 µM
- TGI (COLO 205 colon): > 58.7 µM
- TGI (NCI-H522 lung): 38.7 µM
- TGI (PC-3 prostate): 25.7 µM
- TGI (SK-MEL-28 melanoma): > 72.1 µM
- TGI (786-0 renal): > 52.1 µM
- TGI (SK-MEL-5 melanoma): 26.2 µM
- TGI (SNB-19 CNS): 38.7 µM
- TGI (HOP-92 NSCLC): 25.8 µM
- TGI (SF-539 CNS): 36.4 µM
- TGI (NCI/ADR-RES ovarian): > 60.4 µM
- TGI (OVCAR-8 ovarian): 23.6 µM
- TGI (RPMI-8226 leukemia): > 100 µM
- TGI (NCI-H23 lung): 37.4 µM
- TGI (UACC-62 melanoma): 27.3 µM
- TGI (OVCAR-3 ovarian): > 32.3 µM
- TGI (MOLT-4 leukemia): > 100 µM
- TGI (SF-268 CNS): > 51.7 µM
- TGI (BT-549 breast): 33.6 µM
- TGI (HCT-15 colon): > 63.9 µM
- TGI (T-47D breast): 66.3 µM
- TGI (DU-145 prostate): 33.3 µM
